Peptide text beside a SMILES is read from it.

The target in the test is Sodium/calcium exchanger 1 (Cavia porcellus) (UniProt P48766). Kind of test: Inhibitory activity against Sodium/Calcium exchanger in isolated guinea pig left atria.
Sequence of Sodium/calcium exchanger 1 (Cavia porcellus) (P48766 whole entry, looked up): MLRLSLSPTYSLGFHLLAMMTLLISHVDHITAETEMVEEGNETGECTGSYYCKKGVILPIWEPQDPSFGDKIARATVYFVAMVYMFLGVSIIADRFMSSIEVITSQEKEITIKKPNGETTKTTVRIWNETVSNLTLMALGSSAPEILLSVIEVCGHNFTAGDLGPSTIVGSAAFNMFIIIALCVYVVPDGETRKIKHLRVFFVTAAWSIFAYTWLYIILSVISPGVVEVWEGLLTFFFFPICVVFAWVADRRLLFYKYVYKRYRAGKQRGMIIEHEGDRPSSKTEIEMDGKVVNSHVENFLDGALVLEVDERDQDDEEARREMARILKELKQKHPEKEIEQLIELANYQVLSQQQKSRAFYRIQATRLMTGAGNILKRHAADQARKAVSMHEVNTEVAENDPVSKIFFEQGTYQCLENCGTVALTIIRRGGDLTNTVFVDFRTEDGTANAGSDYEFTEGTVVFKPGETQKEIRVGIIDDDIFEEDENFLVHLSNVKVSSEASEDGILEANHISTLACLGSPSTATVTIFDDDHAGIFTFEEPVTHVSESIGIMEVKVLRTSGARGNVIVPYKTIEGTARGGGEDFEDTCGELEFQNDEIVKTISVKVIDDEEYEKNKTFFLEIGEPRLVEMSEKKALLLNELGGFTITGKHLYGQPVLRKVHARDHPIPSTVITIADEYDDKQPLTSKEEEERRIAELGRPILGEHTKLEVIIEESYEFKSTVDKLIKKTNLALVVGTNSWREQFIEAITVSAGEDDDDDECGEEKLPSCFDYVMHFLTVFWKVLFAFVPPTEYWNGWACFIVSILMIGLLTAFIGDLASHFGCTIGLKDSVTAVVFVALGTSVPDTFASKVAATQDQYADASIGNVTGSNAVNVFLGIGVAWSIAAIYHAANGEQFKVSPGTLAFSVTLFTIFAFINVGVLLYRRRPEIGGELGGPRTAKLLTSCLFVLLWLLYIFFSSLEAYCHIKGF
For the compound `O=C1Nc2ccccc2C(c2ccccc2)N1C1CCN(Cc2cccnc2)CC1` (stereo not given), the IC30 came out at 160 nM. For `CCOc1cccc(CN2CCC(N3C(=O)Nc4ccccc4C3c3ccccc3)CC2)c1` (stereo not given), the IC30 was found to be 580 nM. For `O=C1Nc2ccccc2C(c2ccccc2)N1C1CCN(Cc2cccs2)CC1` (stereo not given), the IC30 came to 1700 nM. The result for `O=C1Nc2ccccc2C(c2ccccc2)N1C1CCN(Cc2ccoc2)CC1` (stereo not given) reads 17 nM. Under `O=C1Nc2ccccc2C(c2ccccc2)N1C1CCN(Cc2ccccc2)CC1` (stereo not given) stands 17 nM. Under `COc1cc(CN2CCC(N3C(=O)Nc4ccccc4C3c3ccccc3)CC2)cc(OC)c1` (stereo not given) stands above 10000 nM; under `O=C1Nc2ccccc2C(c2ccccc2)N1C1CCN(Cc2ccsc2)CC1` (stereo not given), 3900 nM; under `O=C1Nc2ccccc2C(c2ccccc2)N1C1CCN(Cc2ccncc2)CC1` (stereo not given), 480 nM. As to `COCc1cccc(CN2CCC(N3C(=O)Nc4ccccc4C3c3ccccc3)CC2)c1` (stereo not given), the IC30 was found to be 490 nM.

Consider `CSCC[C@H](NC(=O)[C@@H](N)C(C)C)C(=O)N[C@@H](CCCN=C(N)N)C(=O)N[C@@H](Cc1ccccc1)C(N)=O` (H-VMRF-NH2), for which the IC30 came to 10000 nM.

For the compound `COc1ccccc1CN1CCC(N2C(=O)Nc3ccccc3C2c2ccccc2)CC1` (stereo not given), the IC30 was above 10000 nM. The result for `COc1cccc(CN2CCC(N3C(=O)Nc4ccccc4C3c3ccccc3)CC2)c1` (stereo not given) reads 8.4 nM; that for `COc1cc(CN2CCC(N3C(=O)Nc4ccccc4C3c3ccccc3)CC2)cc(OC)c1OC` (stereo not given), above 10000 nM. The result for `O=C1Nc2ccccc2C(c2ccccc2)N1C1CCN(Cc2ccccn2)CC1` (stereo not given) reads 390 nM; that for `O=C1Nc2ccccc2C(c2ccccc2)N1C1CCN(Cc2ccco2)CC1` (stereo not given), 8300 nM; that for `O=C1Nc2ccccc2C(c2ccccc2)N1C1CCN(Cc2cccc(Cl)c2)CC1` (stereo not given), 540 nM. In the case of `O=C1Nc2ccccc2C(c2ccccc2)N1C1CCN(Cc2ccccc2Cl)CC1` (stereo not given), the IC30 was 9000 nM. In the case of `O=C1Nc2ccccc2C(c2ccccc2)N1C1CCN(Cc2ccc(Cl)cc2)CC1` (stereo not given), the concentration for an effect of 30% (IC30) came to 620 nM. For `Cc1cccc(CN2CCC(N3C(=O)Nc4ccccc4C3c3ccccc3)CC2)c1` (stereo not given), the IC30 came out at 560 nM. Consider `COc1ccc(CN2CCC(N3C(=O)Nc4ccccc4C3c3ccccc3)CC2)cc1` (stereo not given), for which the 30% effect concentration (IC30) was 250 nM.

One may read the IC30 as the concentration at which the effect reaches the 30% level.
